# Test results as given in US11767303B2, “Compounds and methods for inhibiting viral replication and methods of treating and preventing flaviviral infections” (priority 2020, dated 2023).
# Key:
# viral NS3 protease = target: T1, viral NS3 protease (Dengue virus type 2, UniProt P29990); assay: Protein thermal shift assay (PTSA); type: binding
# T1 construct: made in house
# From the text: Li et al., “Existing Drugs as Broad-Spectrum and Potent Inhibitors for Zika Virus by Targeting NS2B-NS3 Interaction,” Cell Res. 27:1046-1064 (2017), which is hereby incorporated by reference in its entirety.
# ZIKV [1] = assay: qRT-PCR of viral RNA from ZIKV-infected A549 cells; type: cell-based, Zika virus
# Method: Quantitative qRT-PCR. Quantitative qRT-PCR was performed as described previously. Li et al., “Existing Drugs as Broad-Spectrum and Potent Inhibitors for Zika Virus by Targeting NS2B-NS3 Interaction,” Cell Res. 27:1046-1064 (2017); Li et al., “Erythrosin B is a Potent and Broad-Spectrum Orthosteric Inhibitor of the Flavivirus NS2B-NS3 Protease,” Antiviral Res. 150:217-225 (2018), which are hereby incorporated in their entirety. ZIKV primers […] (SEQ ID NO: 12) and […] (SEQ ID NO: 13) with ZIKV probe Cy5-[…]/TAO/[…]-IAbRQSp (SEQ ID NO: 14) were used. The 2-ΔΔCT (“delta-delta Ct”) method was used to quantify samples. All experiments were performed in triplicates.
# ZIKV [2] = assay: ZIKV inhibition in human neural progenitor cells (IFA, qRT-PCR); type: cell-based, Zika virus; settings: HNPC
# From the text: Viral Titer Reduction Assay. A viral titer reduction assay was used to determine the compounds' effect on DENV2 and ZIKV strains, as described previously. Li et al., “Existing Drugs as Broad-Spectrum and Potent Inhibitors for Zika Virus by Targeting NS2B-NS3 Interaction,” Cell Res. 27:1046-1064 (2017) and Li et al., “Erythrosin B is a Potent and Broad-Spectrum Orthosteric Inhibitor of the Flavivirus NS2B-NS3 Protease,” Antiviral Res. 150:217-225 (2018), which are hereby incorporated by reference in their entirety. Human A549 lung carcinoma cells and human primary neural progenitor cells were used, as described previously. Li et al., “Erythrosin B is a Potent and Broad-Spectrum Orthosteric Inhibitor of the Flavivirus NS2B-NS3 Protease,” Antiviral Res. 150:217-225 (2018); Brecher et al., “A Conformational Switch High-Throughput Screening Assay and Allosteric Inhibition of the Flavivirus NS2B-NS3 Protease,” PLoS Pathog. 13:e1006411 (2017), which are hereby incorporated by reference in their entirety. All experiments were performed in triplicates.
# Immunofluorescence Assay. The immunofluorescence assay was performed using ZIKV-infected cells treated with DMSO or JMX0207, as described previously. […]
# Quantitative qRT-PCR. Quantitative qRT-PCR was performed as described previously. […] The 2-ΔΔCT (“delta-delta Ct”) method was used to quantify samples. […]
# T1 sequence (P29990 1476-1659): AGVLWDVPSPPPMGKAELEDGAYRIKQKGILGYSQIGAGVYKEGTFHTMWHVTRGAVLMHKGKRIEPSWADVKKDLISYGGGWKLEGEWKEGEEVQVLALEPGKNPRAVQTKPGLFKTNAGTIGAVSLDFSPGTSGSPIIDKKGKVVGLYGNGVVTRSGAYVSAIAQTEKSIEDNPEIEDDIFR
structure (smiles),measurement,setting,value
"O=C(Nc1ccc([N+](=O)[O-])cc1Cl)c1cccc([N+](=O)[O-])c1O [JMX0207, N-(2-Chloro-4-nitrophenyl)-2-hydroxy-3-nitrobenzamide]",increase in Tm of the viral protein,viral NS3 protease,0.75 °C
same,ZIKV RNA copy number,ZIKV [1],significantly reduced the ZIKV RNA copy number in a dose-dependent manner
same,ZIKV protein expression and RNA synthesis,ZIKV [2],effectively inhibited ZIKV protein expression and RNA synthesis in HNPC in dose-dependent manner
same,logP,LogP,2.72
